Measurements as given in PubChem BioAssay AID743175 (Broad Institute, 2013).
Calls of active or inactive are those of the source. No rule for the calls is given here.

System: Mycobacterium tuberculosis non-replicating, growth inhibition plate reader
Assay: inhibitor activity on non-replicating M. tuberculosis, dose response, plate reader, dry powder (AID 743175)
Conditions: not given

| Structure (SMILES) | AC90 |
| --- | --- |
| Cc1nnc(NC(=O)c2ccc3ccccc3c2)o1 | 1.34 µM |
| Cc1cccc(C)c1N1C(=O)CC(N2CCSCC2)C1=O (centres undefined) | 5.72 µM |
| COc1ccccc1C#Cc1ccc([C@@H]2[C@H](C#N)N(C(=O)C3CC3)[C@H]2CO)cc1 | > 23.5 µM (inactive) |
| CCc1ccc(OCCCC(=O)NCc2ccco2)cc1 | > 38 µM (inactive) |
| O=C(COc1cccc2ccccc12)Nc1nc2ccccc2[nH]1 | > 38 µM (inactive) |
| O=C(NC1CC2CCC1C2)C1COc2ccccc2O1 (centres undefined) | > 38 µM (inactive) |
| COC(=O)COc1ccc2c(=O)c(Oc3ccccc3)c(C)oc2c1 | > 38 µM (inactive) |
| CCOC(=O)c1cc(-c2csc(COc3ccccc3)n2)on1 | > 38 µM (inactive) |
| CCOC(=O)COc1ccc2c(=O)cc(-c3ccccc3)oc2c1 | > 38 µM (inactive) |
| CCCCN(C/C=C/c1ccccc1OC)Cc1ccccc1 | > 38 µM (inactive) |
| NC1CCN(c2c(F)cc3c(=O)c(C(=O)O)cn(C4CC4)c3c2Cl)C1 (centres undefined) | 2.94 µM |
| Brc1c(-c2ccc3c(c2)OCO3)nc2ncccn12 | 32.3 µM |
| COc1ccccc1C#Cc1ccc([C@H]2[C@@H](CO)N(C(=O)C3CC3)[C@H]2C#N)cc1 | > 26 µM (inactive) |
| c1ccc(Nc2nc(-c3ccccn3)cs2)cc1 | > 38 µM (inactive) |
| Cc1cccc(Cn2ccc(NC(=O)c3ccc4c(c3)OCO4)n2)c1 | 20 µM |
| CCOC(=O)c1sc(NC(=O)CCN2CCOCC2)c(C(=O)OCC)c1C | > 38 µM (inactive) |
| CCOC(=O)COc1ccc2c(c1)C(=O)CC1(CCCCC1)O2 | > 38 µM (inactive) |
| CCOC(=O)COc1ccc2c(=O)c(-c3ccccc3)coc2c1 | > 38 µM (inactive) |
| CCOCCOC(=O)COc1ccc2c(-c3ccccc3)cc(=O)oc2c1 | > 38 µM (inactive) |
| O=C(Nc1nc2ccccc2[nH]1)c1cccc(Cl)c1 | 11.4 µM |
| CCOC(=O)COc1ccc(C(=O)NC2CCCCC2)cc1 | > 38 µM (inactive) |
| COc1ccccc1C#Cc1ccc([C@@H]2[C@@H](C#N)N(C(=O)C3CC3)[C@H]2CO)cc1 | > 26 µM (inactive) |
| COc1ccccc1C#Cc1ccc([C@H]2[C@H](C#N)N(C(=O)C3CC3)[C@H]2CO)cc1 | > 26 µM (inactive) |
| O=C(COc1c(Br)cc(Br)c2cccnc12)N1CCCCC1 | 6.33 µM |
| COC(=O)COc1cccc(NC(=O)c2ccc(Cl)cc2)c1 | > 38 µM (inactive) |
| O=C(NCc1cccs1)c1ccc(Br)o1 | > 38 µM (inactive) |

System: not listed separately
Assay: as above
Conditions: Mycobacterium tuberculosis non-replicating, growth inhibition plate reader; at 23.5 µM (top of the series)

| Structure (SMILES) | activity change, negative = inhibition |
| --- | --- |
| CNC[C@H]1OCCCC[C@@H](C)Oc2ccc(NC(=O)CCCN(C)C)cc2C(=O)N([C@H](C)CO)C[C@@H]1C | 0.469% (inactive) |
| O=C(C[C@@H]1C=C[C@H](NC(=O)Nc2cc(F)ccc2F)[C@H](CO)O1)NCc1ccc2c(c1)OCO2 | -1.22% (inactive) |
| Cc1noc(C)c1NC(=O)Nc1ccc2c(c1)C(=O)N(C)[C@H]1CC[C@H](CC(=O)NCc3ccc(Cl)cc3)O[C@H]1CO2 | -5.96% (inactive) |
| Cc1noc(C)c1NC(=O)Nc1ccc2c(c1)C(=O)N(C)[C@H]1CC[C@@H](CC(=O)NCc3ccc(Cl)cc3)O[C@@H]1CO2 | -7.13% (inactive) |
| C[C@H](C(=O)N(C)C[C@@H]1OCc2ccccc2-c2ccccc2C(=O)N([C@H](C)CO)C[C@H]1C)c1ccccc1 | -2.02% (inactive) |
| Cc1noc(C)c1NC(=O)Nc1ccc2c(c1)C(=O)N(C)[C@@H]1CC[C@H](CC(=O)NCc3ccc(Cl)cc3)O[C@H]1CO2 | -0.708% (inactive) |
| O=C(C[C@@H]1C=C[C@@H](NC(=O)Nc2cc(F)ccc2F)[C@@H](CO)O1)NCc1ccc2c(c1)OCO2 | 2.62% (inactive) |

Same assay, conditions: Mycobacterium tuberculosis non-replicating, growth inhibition plate reader; at 26 µM (top of the series)

| Structure (SMILES) | activity change, negative = inhibition |
| --- | --- |
| C[C@@H](C(=O)N(C)C[C@H]1OCc2ccccc2-c2ccccc2C(=O)N([C@@H](C)CO)C[C@@H]1C)c1ccccc1 | -10.5% (inactive) |
| COc1ccccc1C#Cc1ccc([C@H]2[C@@H](CO)N(C(=O)C3CC3)[C@H]2C#N)cc1 | -16.4% (inactive) |
| O=C(C[C@H]1C=C[C@@H](NC(=O)Nc2cc(F)ccc2F)[C@@H](CO)O1)NCc1ccc2c(c1)OCO2 | 4.07% (inactive) |
| C[C@H](C(=O)N(C)C[C@@H]1OCc2ccccc2-c2ccccc2C(=O)N([C@H](C)CO)C[C@@H]1C)c1ccccc1 | -7.59% (inactive) |
| C[C@@H]1CN([C@H](C)CO)C(=O)c2ccccc2-c2ccccc2CO[C@H]1CN(C)C(=O)[C@H](C)c1ccccc1 | 3.43% (inactive) |
| O=C(C[C@@H]1C[C@H]2c3cc(NC(=O)c4cccnc4)ccc3O[C@H]2[C@H](CO)O1)NCC(F)(F)F | 4.14% (inactive) |
| Cc1noc(C)c1NC(=O)Nc1ccc2c(c1)C(=O)N(C)[C@H]1CC[C@H](CC(=O)NCc3ccc(Cl)cc3)O[C@@H]1CO2 | -8.85% (inactive) |
| COCCNC(=O)C[C@@H]1C[C@H]2c3cc(NC(=O)Nc4ccc(C(F)(F)F)cc4)ccc3O[C@H]2[C@@H](CO)O1 | 2.69% (inactive) |
| C[C@@H]1CN([C@@H](C)CO)C(=O)c2ccccc2-c2ccccc2CO[C@@H]1CN(C)C(=O)[C@H](C)c1ccccc1 | 5.94% (inactive) |
| O=C(C[C@@H]1C[C@@H]2c3cc(NC(=O)c4cccnc4)ccc3O[C@@H]2[C@H](CO)O1)NCC(F)(F)F | -0.328% (inactive) |
| COCCNC(=O)C[C@H]1C[C@@H]2c3cc(NC(=O)Nc4ccc(C(F)(F)F)cc4)ccc3O[C@@H]2[C@H](CO)O1 | -0.81% (inactive) |
| CNC[C@@H]1OCCCC[C@@H](C)Oc2ccc(NC(=O)CCCN(C)C)cc2C(=O)N([C@H](C)CO)C[C@H]1C | -0.491% (inactive) |
| COCCNC(=O)C[C@H]1C[C@@H]2c3cc(NC(=O)Nc4ccc(C(F)(F)F)cc4)ccc3O[C@@H]2[C@@H](CO)O1 | -5.53% (inactive) |
| Cc1noc(C)c1NC(=O)Nc1ccc2c(c1)C(=O)N(C)[C@H]1CC[C@@H](CC(=O)NCc3ccc(Cl)cc3)O[C@H]1CO2 | 0.473% (inactive) |
| O=C(C[C@H]1C=C[C@H](NC(=O)Nc2cc(F)ccc2F)[C@H](CO)O1)NCc1ccc2c(c1)OCO2 | 2.59% (inactive) |
| C[C@H](C(=O)N(C)C[C@H]1OCc2ccccc2-c2ccccc2C(=O)N([C@@H](C)CO)C[C@H]1C)c1ccccc1 | -0.472% (inactive) |
| COCCNC(=O)C[C@H]1C[C@H]2c3cc(NC(=O)Nc4ccc(C(F)(F)F)cc4)ccc3O[C@H]2[C@H](CO)O1 | 5.95% (inactive) |
| O=C(C[C@H]1C[C@@H]2c3cc(NC(=O)c4cccnc4)ccc3O[C@@H]2[C@@H](CO)O1)NCC(F)(F)F | 2.49% (inactive) |
| C[C@@H](C(=O)N(C)C[C@@H]1OCc2ccccc2-c2ccccc2C(=O)N([C@@H](C)CO)C[C@@H]1C)c1ccccc1 | 3.38% (inactive) |
| COc1ccccc1C#Cc1ccc([C@@H]2[C@@H](C#N)N(C(=O)C3CC3)[C@@H]2CO)cc1 | -12.4% (inactive) |
| Cc1noc(C)c1NC(=O)Nc1ccc2c(c1)C(=O)N(C)[C@@H]1CC[C@@H](CC(=O)NCc3ccc(Cl)cc3)O[C@@H]1CO2 | -1.24% (inactive) |
| CNC[C@@H]1OCCCC[C@@H](C)Oc2ccc(NC(=O)CCCN(C)C)cc2C(=O)N([C@H](C)CO)C[C@@H]1C | -5.36% (inactive) |
| C[C@H](C(=O)N(C)C[C@H]1OCc2ccccc2-c2ccccc2C(=O)N([C@@H](C)CO)C[C@@H]1C)c1ccccc1 | -9.24% (inactive) |
| O=C(C[C@H]1C=C[C@H](NC(=O)Nc2cc(F)ccc2F)[C@@H](CO)O1)NCc1ccc2c(c1)OCO2 | -6.29% (inactive) |
| COc1ccccc1C#Cc1ccc([C@H]2[C@@H](C#N)N(C(=O)C3CC3)[C@@H]2CO)cc1 | -31.8% (inactive) |

Same assay, conditions: Mycobacterium tuberculosis non-replicating, growth inhibition plate reader; at 38 µM (top of the series)

| Structure (SMILES) | activity change, negative = inhibition |
| --- | --- |
| CCOC(=O)c1c(C)n(C)c2ccc(OC(C)C(=O)OC)cc12 (centres undefined) | -6.52% (inactive) |
| Fc1ccc(-c2ccc(CNCc3ccccn3)o2)cc1Cl | -52% (inactive) |
| C=CCn1c(NC(=O)c2ccccc2)nc2ccccc21 | -76.7% (inactive) |
| CC(=O)c1ccc(NC(=O)c2cc(CC(C)C)on2)cc1 | -14.7% (inactive) |
| O=C(OCc1ccc(Cl)c(Cl)c1)c1ccccn1 | -7.55% (inactive) |
| CCCC(C)C(=O)Nc1ccc(Cl)cn1 (centres undefined) | -14.4% (inactive) |
